Measurements published in patent publication US20250332212A1, “METHOD FOR TREATING OR PREVENTING ALOPECIA” (Suzhou Mingren Pharmaceutical Biotechnology Co., Ltd., priority 2024, published 2025).

What was measured:
[1] = biological target: type II 5α-reductase (Homo sapiens, UniProt P31213); conditions: in serum and scalp; cited from earlier work
[2] = background statement; cited from earlier work
[3] = tested on: TP-induced AGA model mice; test: TP-induced AGA model, Animal model III (specific inhibition of SP1 by MTA); assay type: in vivo, C57BL/6J male mice; conditions: MTA 0.3 mg/kg/d intraperitoneally with 1% JP1
From the text: To verify that JP1 promotes AGA follicle regeneration through the activation of the Wnt/β-catenin signaling pathway via the MAPK/E2F1/SP1 signaling axis, the example constructed a mouse model of AGA with specific inhibition of SP1 (FIG. 15A). The specific experimental details are described according to “Animal model III” of “1. TP-induced AGA model” in “Experimental Methods”.
To further confirm that JP1 promotes the growth of hair follicles on the back of AGA model mice through the SP1-regulated Wnt/β-catenin signaling pathway at the histomorphometric level, H&E staining was performed on the skin tissues of the model mice of Example 15 at different time points (days 4, 8, and 12 post-intervention).
The mice used in this study were 5-week-old C57BL/6J male mice (18-20 g), which were purchased from Jiangsu Jicui Pharmachem Biotechnology Co. All the animals used in the experiments were housed in the SPF-level environment of the Medical Laboratory Animal Center of Nanjing Medical University, and the relevant animal experimental operations were approved by the Animal Ethics Committee of Nanjing Medical University. The control group was left untreated, and the other groups were injected with TP subcutaneously on their backs every day. Two weeks later, the hair on the backs of the mice was shaved with an electric razor, covering an area of 2 cm×4 cm, and then the residual hair was removed with a hair removal cream. The subcutaneous injections of TP on the shaved backs of the mice in the AGA model was continued until the end of the experimental period, and the administration of TP in each of the treatment groups was begun on the 1st day of the dehairing process.
In addition to the normal control group (denoted as control) n=20, all mice injected subcutaneously with TP were randomly divided into the following groups (n=20): the model group (denoted as model), the 1% JP1 (skin-coated), and the 1% JP1+MTA group. […] MTA was administered at a dose of 0.3 mg/kg/d, qd, intraperitoneally, 100 μL/dose.
Mice were weighed every two days during the experiment. Skin color was assessed against skin score charts. The mice were euthanized and treated at the end of the experiment, and skin tissues were taken from the dorsal decorticated area of the mice. Some of the tissues were fixed with 4% paraformaldehyde solution and then paraffin sections were made for H&E or immunofluorescence staining, etc., and some of the tissues were stored in the refrigerator at −80° C. for relevant molecular expression assays (qRT-PCR, Western Blot, IP, etc.).
8.1) Sampling and fixation: After the experiment, skin tissue was taken from the depilated area on the back of the mouse and placed in a 10 mL EP tube. 4% paraformaldehyde was added to the EP tube, and all tissues were immersed to denature and coagulate the proteins of the skin tissue. The original morphology and structure of the cells were maintained.
8.6) H&E staining: the sections pretreated in distilled water were put into aqueous hematoxylin solution for a few minutes for staining. The color was separated in acid water and ammonia for a few seconds each. After rinsing in running water for 1 h, the sections were placed in distilled water for a few moments. The sections were dehydrated in 70% and 90% alcohol for 10 min each, and stained in alcoholic eosin stain for 2-3 min.

[4] = tested on: SP1, Wnt10a, Wnt10b and β-catenin; test: Immunoblotting of SP1 and downstream molecules in skin, Animal model III; assay type: in vivo, mouse; conditions: dorsal skin
Description: 4.1) Protein extraction: 70 mg of skin tissue was placed in a 1.5 mL centrifuge tube, and 500 μL of tissue lysate RIPA containing protease inhibitor and phosphatase inhibitor was added. The tissue was placed on an ice box, pulverized by a tissue grinder, and then ultrasonically crushed to obtain a tissue suspension, which was then placed in a rotary windmill at 4° C. to be lysed for 2 h. The centrifuge was set at 12,000×g, 4° C., centrifuged for 15 min, and the supernatant was collected as the total protein.
5.1) Heating of protein samples: the total protein content of each tissue was 50 μg; calculate the volume of a corresponding protein sample, make up the volume with saline to 16 μL, then add 4 μL of 5×SDS sampling buffer, heat at 100° C. for 5 min, and then cool at room temperature and store at −20° C.
5.7) Primary antibody incubation: the cut protein bands were placed into the corresponding primary antibody and incubated at 4° C. on a shaker overnight, washed with TBST 3 times for 10 min/time.

Chain of type II 5α-reductase (P31213 whole entry): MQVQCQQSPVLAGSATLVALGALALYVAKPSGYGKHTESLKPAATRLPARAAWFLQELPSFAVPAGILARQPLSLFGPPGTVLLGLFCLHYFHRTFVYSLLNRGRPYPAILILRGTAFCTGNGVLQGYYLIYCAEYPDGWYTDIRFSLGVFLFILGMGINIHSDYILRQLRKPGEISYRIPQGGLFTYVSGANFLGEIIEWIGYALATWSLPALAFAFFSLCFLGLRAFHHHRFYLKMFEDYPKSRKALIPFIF

## CC(C)(C)NC(=O)[C@H]1CC[C@H]2[C@@H]3CC[C@H]4NC(=O)C=C[C@]4(C)[C@H]3CC[C@]12C [finasteride]
[1]
  reduction of double hydrogen testosterone (DHT): more than 60%

## Nc1cc(N2CCCCC2)nc(N)[n+]1[O-] [minoxidil]
[2]
  adverse reactions: itchiness of the scalp, dermatitis, and localized hirsutism

## Mithramycin A [MTA, reference compound]
[3]
  effect of SP1 inhibition on hair follicle growth promotion by JP1: blocked the hair follicle growth-promoting effect of JP1
[4]
  effect of MTA on JP1-induced expression of SP1 downstream molecules: block the effect of JP1 on the expression of SP1 downstream molecules
